Values of other authors as cited in US20110201657A1, “AMIDE SUBSTITUTED INDAZOLE AND BENZOTRIAZOLE DERIVATIVES AS POLY(ADP-RIBOSE)POLYMERASE (PARP) INHIBITORS” (Istituto di Ricerche di Biologia Molecolare P. Angeletti SpA, priority 2006, published 2011).

Tested on: infarct size in the heart
Details: rabbits

Row | SMILES | reduction in infarct size in the heart (single injection 10 mg/kg, one minute before occlusion or before reperfusion) | reduction in infarct size (single injection 1 mg/kg)
1 | NC(=O)c1cccc(N)c1 [3-amino-benzamide] | 32-42% | 
2 | Oc1cccc2c(O)nccc12 [1,5-dihydroxyisoquinoline] |  | 38-48%
